Experimental data as given in publication PMC10258794, “To Fold or Not to Fold: Diastereomeric Optimization of an α-Helical Antimicrobial Peptide” (Journal of Medicinal Chemistry, 2023).
In brackets after ≈: the same amount, converted by molar mass. Read-outs that look alike come from different tables or passages of the source. Non-standard residues stand in square brackets, D forms with d. No end group written: not given here.

Tests used:
Burkolderia cenocepacia = assay: microbe, parasite or virus in culture; conditions: for MIC Burkolderia cenocepacia: MDR strain, MH broth pH 7.4, 16–20 h, 37 °C; for MIC B. cenocepacia: supplementary CSV
Enterobacter cloacae = assay: microbe, parasite or virus in culture; conditions: pH 7.4
Outline: (§1)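 Twofold dilution series vs. bacteria (OD600 0.022 dilution, about 5 × 10^5 CFU) in Mueller–Hinton pH 7.4. Incubated 37 °C, 16–20 h, static. MTT added; visual yellow endpoint = MIC.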

P. aeruginosa PA14 = assay: microbe, parasite or virus in culture; conditions: for MIC PA14: MH broth pH 7.4, 16–20 h, 37 °C; for MIC P. aeruginosa PA14: supplementary CSV
Outline: as §1

P. aeruginosa ZEM-1A = assay: microbe, parasite or virus in culture; conditions: pH 7.4
Outline: as §1

PA14 2P4 (pmrB) = assay: microbe, parasite or virus in culture; conditions: supplementary CSV
Outline: as §1

PA14 4.13 (phoQ) = assay: microbe, parasite or virus in culture; conditions: supplementary CSV
Outline: as §1

PA14 4.18 (pmrB) = assay: microbe, parasite or virus in culture; conditions: supplementary CSV
Outline: as §1

P. aeruginosa ZEM9A = assay: microbe, parasite or virus in culture; type: cell-based, Pseudomonas aeruginosa; conditions: pH 7.4
Outline: as §1

K. pneumoniae Oxa-48 = assay: MIC broth microdilution, K. pneumoniae Oxa-48; type: cell-based, Klebsiella pneumoniae; conditions: MDR strain; MH broth pH 7.4, 16–20 h, 37 °C
Outline: as §1

[1] = tested on: Stenotrophomonas maltophilia; assay: microbe, parasite or virus in culture; type: cell-based; conditions: pH 7.4
Outline: as §1

Staphylococcus epidermis = assay: MIC broth microdilution, Staphylococcus epidermis; type: cell-based; conditions: for MIC Staphylococcus epidermis: pH 7.4
Outline: as §1

HEK293 cells = assay: Alamar blue cytotoxicity, HEK293; type: cell-based, human; conditions: 24 h, mean ± SD, n = 3, read-out: Toxicity on HEK293 cells
Outline: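 Cells seeded 4000/well (HEK293, DMEM) or 8000/well (A549, RPMI-1640) with 10% FBS, then exposed to increasing compound concentrations for 24 h at 37 °C, 5% CO2. AlamarBlue (10%) added for 3–5 h; fluorescence ex 560/em 590 nm, normalized to untreated cells.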

A549 cells = assay: Alamar blue cytotoxicity, A549; type: cell-based, human; conditions: 24 h, mean ± SD, n = 3, read-out: Toxicity on A549 lung cancern cells
Method: The A549 human lung adenocarcinoma cells are derived from a patient and were kindly given to us by Dr. Georgia Konstatinidou (Pharmacology Institute, Bern University). HEK293T cells were obtained from ATCC (CRL-11268). A549 and HEK293 were cultured in an incubator at 37 °C with 5% CO2 in RPMI-1640 (Gibco) and DMEM (Gibco) containing 10% fetal bovine serum (Thermo Fisher), 100 I.U./mL penicillin, and 100 μg/mL streptomycin (Gibco).
The viability of the cells was assessed with an AlamarBlue assay (ThermoFisher). Cells were seeded into 96-well plates, 4000 cells/well (HEK293) and 8000 cells/well (A549), the day before the experiment. Cells were then treated with the increasing concentration of the compound and incubated for 24 h at 37 °C in the presence of 5% CO2. The next day, the medium was removed and replaced by a 10% AlamarBlue solution in full growth medium (DMEM or RPMI-1640). The cells were incubated for 3–5 h at 37 °C with 5% CO2 in a humidified atmosphere. The fluorescence was then measured on a Tecan Infinite M1000 Pro plate reader at λex 560 nm and λem 590 nm. The value was normalized according to the untreated cells.

[2] = 24 h, […] human serum in TRIS buffer pH 7.4, 37 °C
Method: Human serum was diluted in 0.1 M filtered TRIS buffer (pH 7.4) (25%, 1:3, v/v). Selected peptides were diluted in 0.1 M filtered TRIS buffer (pH 7.4) to a concentration of 400 μM, and 0.1 mg/mL 4- hydroxybenzoic acid was added as an internal standard. Aliquots of peptide solution (50 μL) were added to aliquots of serum (50 μL) in sterile Eppendorf tubes, to reach a peptide concentration of 200 μM during the assay. Samples were incubated at 37 °C under gentle stirring (350 rpm). Different samples (triplicates) were quenched at different time points (0/1/6/12/24 h) by precipitating serum proteins through the addition of ZnSO4·7 H2O/ACN (1:1) (0.1 M, 100 μL) and cooling in ice bath for 10 min. Protein precipitates were pelleted under centrifugation, and supernatants were then sampled and analyzed by LC–MS. Experiment controls included two references, one known to be degraded and one known to be undegraded. Peaks corresponding to the internal standard and the undegraded peptides were integrated, with the ratio peptide/standard at t = 0 h as 100%.

A. baumannii ATCC19606 = tested on: A. baumannii ATCC19606
Outline: as §1

E. coli W3110 = tested on: E. coli W3110
Outline: as §1

K. pneumoniae NCTC418 = tested on: K. pneumoniae NCTC418
Outline: as §1

P. aeruginosa PAO1 [3] = tested on: P. aeruginosa PAO1
Outline: as §1

S. aureus COL MRSA = conditions: for MIC S. aureus COL MRSA: MH broth pH 7.4, 16–20 h, 37 °C; for MIC S. aureus COL: supplementary CSV, ranges of Table 1 given as one number
Outline: as §1

S. aureus Newman [4] = conditions: for MIC S. aureus Newman: MH broth pH 7.4, 16–20 h, 37 °C; for MIC S. aureus Newmann: supplementary CSV
S. aureus Newman [5] = assay: microbe, parasite or virus in culture; conditions: Staphylococcus aureus, pH 7.4, read-out: MIC S. aureus Newman
P. aeruginosa PAO1 [6] = assay: Time-killing kinetic assay; type: cell-based, Pseudomonas aeruginosa; conditions: P. aeruginosa PAO1, 4 × MIC, pH 7.4
Method: A single colony of P. aeruginosa PAO1 was picked and grown overnight with shaking (180 rpm) in LB (Sigma-Aldrich, Buchs, Switzerland) medium 5 mL overnight at 37 °C. The overnight bacterial culture was diluted to OD600 0.002 (2 × 10^6 CFU/mL) in fresh MH medium. Stock solutions of AMPs in sterilized milliQ water were prepared in 1 mg/mL and were diluted to two times more than required concentration in fresh MH (Sigma-Aldrich, Buchs, Switzerland) medium at pH 7.4. 100 μL of prepared bacteria solution in MH and 100 μL of samples in MH were mixed in a 96-well microtiter plate (TPP, untreated, Corning Incorporated, Kennebunk, USA). Untreated bacteria at 1 × 10^6 CFU/mL were used as a growth control. 96-well microtiter plates were incubated in 37 °C with shaking (180 rpm). Surviving bacteria were quantified at 0, 0.5, 1, 2, 3, 4, 5, and 6 h by plating 10-fold dilutions of the sample in sterilized normal saline on LB agar plates. LB agar plates were incubated at 37 °C for 10 h, and the number of individual colonies was counted at each timepoint. The assay was performed in triplicate in the biosafety level 2 lab.

[7] = tested on: Pseudomonas aeruginosa, Klebsiella pneumoniae, Acinetobacter baumannii, Escherichia coli, and methicillin-resistant Staphylococcus aureus; conditions: summary of Table 1
Outline: as §1

[8] = target: the molecule itself; assay: crystal structure; co-crystallisation of the C-fucosylated peptide with LecB, sitting drop vapor diffusion, 18 °C; LecB 5 mg/mL in water with 6 mM CaCl2 and MgCl2; peptide at 5:1 molar excess over the LecB monomer
[9] = MH broth pH 7.4, 16–20 h, 37 °C
[10] = supplementary CSV, ranges of Table 1 given as one number

| Molecule | MIC Burkolderia cenocepacia (Burkolderia cenocepacia) | MIC B. cenocepacia (Burkolderia cenocepacia) | MIC Enterobacter cloacae (Enterobacter cloacae) | MIC PA14 (P. aeruginosa PA14) | MIC P. aeruginosa PA14 (P. aeruginosa PA14) | MIC ZEM-1A (P. aeruginosa ZEM-1A) | MIC P. aeruginosaPA14 2P4 (PA14 2P4 (pmrB)) | MIC P. aeruginosa PA14 4.13 (PA14 4.13 (phoQ)) | MIC P. aeruginosa PA14 4.18 (PA14 4.18 (pmrB)) | MIC ZEM9A (P. aeruginosa ZEM9A) | MIC K. pneumoniae Oxa-48 (K. pneumoniae Oxa-48) | MIC Stenotrophomonas maltophilia [1] | MIC Staphylococcus epidermis (Staphylococcus epidermis) | IC50 (HEK293 cells) | IC50 (A549 cells) | serum stability [2] | MIC A. baumannii ATCC19606 (A. baumannii ATCC19606; [9]) | MIC E. coli W3110 (E. coli W3110; [9]) | MIC K. pneumoniae NCTC418 (K. pneumoniae NCTC418; [9]) | MIC K. pneumoniae NCTC418 (K. pneumoniae NCTC418; [10]) | other results |
| --- | --- | --- | --- | --- | --- | --- | --- | --- | --- | --- | --- | --- | --- | --- | --- | --- | --- | --- | --- | --- | --- |
| CC(C)C[C@@H](NC(=O)[C@@H](CC(C)C)NC(=O)[C@@H](CC(C)C)NC(=O)[C@H](CCCCN)NC(=O)[C@@H](CC(C)C)NC(=O)[C@@H](CC(C)C)NC(=O)[C@H](CCCCN)NC(=O)[C@@H](CC(C)C)NC(=O)[C@@H](CC(C)C)NC(=O)[C@H](CCCCN)NC(=O)[C@@H](N)CCCCN)C(N)=O [dln69, KKllKllKlll] | >64 µg/mL | > 64 µg/mL | 4 µg/mL (≈ 3.03 µM) | 1 µg/mL (≈ 0.757 µM) | 1 µg/mL (≈ 0.757 µM) | 4 µg/mL (≈ 3.03 µM) | 16 µg/mL (≈ 12.1 µM) | 2 µg/mL (≈ 1.51 µM) | 8 µg/mL (≈ 6.05 µM) | 8 µg/mL (≈ 6.05 µM) | 8 µg/mL (≈ 6.05 µM) | 2 µg/mL (≈ 1.51 µM) | 4 µg/mL (≈ 3.03 µM) | 87 ± 2 µM | 7.2 ± 6.5 µM | entirely degraded | 2 µg/mL (≈ 1.51 µM) | 0.5 to 1 µg/mL | 4 µg/mL (≈ 3.03 µM) | 4 µg/mL (≈ 3.03 µM) | MIC A. baumannii ATCC19606 (A. baumannii ATCC19606; [10]): 2 µg/mL (≈ 1.51 µM); MIC E. coli W3110 (E. coli W3110; [10]): 1 µg/mL (≈ 0.757 µM); MIC P. aeruginosa PAO1 (P. aeruginosa PAO1 [3]; [9]): 2 to 4 µg/mL; MIC P. aeruginosa PAO1 (P. aeruginosa PAO1 [3]; [10]): 3 µg/mL (≈ 2.27 µM); MIC S. aureus COL MRSA (S. aureus COL MRSA): 2 µg/mL (≈ 1.51 µM); MIC S. aureus COL (S. aureus COL MRSA): 2 µg/mL (≈ 1.51 µM); MIC S. aureus Newman (S. aureus Newman [4]): 1 µg/mL (≈ 0.757 µM); MIC S. aureus Newmann (S. aureus Newman [4]): 1 µg/mL (≈ 0.757 µM) |
| CN[C@H](CC(C)C)C(=O)N[C@H]1C(=O)N[C@@H](CC(N)=O)C(=O)N[C@H]2C(=O)N[C@H]3C(=O)N[C@H](C(=O)N[C@H](C(=O)O)c4cc(O)cc(O)c4-c4cc3ccc4O)[C@H](O)c3ccc(c(Cl)c3)Oc3cc2cc(c3O[C@@H]2O[C@H](CO)[C@@H](O)[C@H](O)[C@H]2O[C@H]2C[C@](C)(N)[C@H](O)[C@H](C)O2)Oc2ccc(cc2Cl)[C@H]1O [Vancomycin, vancomycin, reference compound] |  |  |  |  |  |  |  |  |  |  |  |  |  |  |  |  |  |  |  |  | MIC (Staphylococcus epidermis; Staphylococcus, pH 7.4, read-out: MIC Staphylococcus epidermis): 0.5 µg/mL (≈ 0.345 µM); MIC (S. aureus Newman [5]): 0.5 µg/mL (≈ 0.345 µM) |
| CC(C)C[C@H](NC(=O)[C@H](CCCCN)NC(=O)[C@H](N)CCCCN)C(=O)N[C@@H](CC(C)C)C(=O)N[C@@H](CCCCN)C(=O)N[C@@H](CC(C)C)C(=O)N[C@@H](CC(C)C)C(=O)N[C@@H](CCCCN)C(=O)N[C@@H](CC(C)C)C(=O)N[C@@H](CC(C)C)C(=O)N[C@H](CC(C)C)C(N)=O [HP5] | >64 µg/mL | > 64 µg/mL | 2 µg/mL (≈ 1.51 µM) | 2 µg/mL (≈ 1.51 µM) | 2 µg/mL (≈ 1.51 µM) | 2 µg/mL (≈ 1.51 µM) | 32 µg/mL (≈ 24.2 µM) | 4 µg/mL (≈ 3.03 µM) | 16 µg/mL (≈ 12.1 µM) | 4 µg/mL (≈ 3.03 µM) | 2 µg/mL (≈ 1.51 µM) | 2 µg/mL (≈ 1.51 µM) | 2 µg/mL (≈ 1.51 µM) | 93.2 ± 0.1 µM | 18.9 ± 3.6 µM | entirely stabilize | 0.5 µg/mL (≈ 0.378 µM) | 0.5 µg/mL (≈ 0.378 µM) | 2 µg/mL (≈ 1.51 µM) | 2 µg/mL (≈ 1.51 µM) | time to complete killing of bacteria (P. aeruginosa PAO1 [6]): ≤ 1 h; MIC P. aeruginosa PAO1 (P. aeruginosa PAO1 [3]; [9]): 2 µg/mL (≈ 1.51 µM); MIC P. aeruginosa PAO1 (P. aeruginosa PAO1 [3]; [10]): 2 µg/mL (≈ 1.51 µM); MIC, span over the five bacterial strains [7]: 0.5 to 4 µg/mL; MIC S. aureus COL MRSA (S. aureus COL MRSA): 2 µg/mL (≈ 1.51 µM); MIC S. aureus COL (S. aureus COL MRSA): 2 µg/mL (≈ 1.51 µM); MIC S. aureus Newman (S. aureus Newman [4]): 2 µg/mL (≈ 1.51 µM); MIC S. aureus Newmann (S. aureus Newman [4]): 2 µg/mL (≈ 1.51 µM) |
| {α‑L‑fucosyl‑acetyl}-K[dK]L[dL]K[dL]L[dK]L[dL]L (also called fucosylated analogue of HP30; source: synthetic peptide (Fmoc solid-phase synthesis on Tentagel S RAM resin, preparative RP-HPLC)) [FHP30] |  |  |  |  |  |  |  |  |  |  |  |  |  |  |  |  |  |  |  |  | stoichiometry N [8]: 4 |
